From article PMC7887271, “Fast acting allosteric phosphofructokinase inhibitors block trypanosome glycolysis and cure acute African trypanosomiasis in mice” (Nature Communications, 2021)
“And” between values parts separate entries of the source, which are not always exact repeats. Identical values can stand only once.

Experiments:
[1] = system: T. b. gambiense; assay: EC50 against in vitro cultured T. b. gambiense (STMI); format: cell-based; details: Trypanosoma brucei
[2] = system: MDCK-MDR1; details: dog
[3] = system: T. b. brucei Lister 427; assay: Wash-out studies, Lister 427; format: cell-based; details: concentrations greater than 2 to 4 µM, exposure longer than 4-6 hours, 3 days in drug free medium
Method: In order to estimate a killing-dose for in vivo trials, a series of washout experiments were carried out: parasites were incubated with a given concentration of compound before washing out the drug and determining whether the parasites were still viable and able to proliferate. […] The existence of a small population of parasites more resistant to the effects of the CTCB compounds might be explained by subpopulations of parasites being present at different stages of the cell cycle. The parasite cultures used in the killing experiments are not synchronised, and it is likely that ATP requirement varies depending on cell cycle phase and a subpopulation with lower ATP requirement may be less susceptible to the CTCB compounds, however, this phenomenon needs further investigation.
In vitro ‘wash-out’ studies were performed to determine the reversibility of the action of the CTCB compounds on trypanosomes, after a certain exposure time, and thus to assess whether the compounds have a trypanocidal or trypanostatic effect. These experiments were carried out with both the T. b. brucei Lister 427 and T. b. brucei GVR35-luc strains. […] The cell suspensions were then incubated under regular culture conditions for 3 days and parasite growth monitored daily by light microscopy. […]

[4] = Mouse hepatocytes intrinsic clearance; format: in vitro ADME
Description: Methods are described in Supplementary Methods 5 and 6. Enzyme assay results are means ± SD in multiple assays. ADME results are averages of n = 2 or 3 measurements in individual assays.

[5] = system: T. b. rhodesiense; assay: EC50 against in vitro cultured T. b. rhodesiense (STMI); format: cell-based; details: Trypanosoma brucei
[6] = system: T. b. brucei GVR35-luc; assay: Wash-out studies, GVR35; format: cell-based; details: concentrations greater than 2 to 4 µM, exposure longer than 4-6 hours, 3 days in drug free medium
Method: In vitro ‘wash-out’ studies were performed to determine the reversibility of the action of the CTCB compounds on trypanosomes, after a certain exposure time, and thus to assess whether the compounds have a trypanocidal or trypanostatic effect. These experiments were carried out with both the T. b. brucei Lister 427 and T. b. brucei GVR35-luc strains. Trypanosomes at a density of 500,000 cells/ml in culture medium were incubated with CTCB compounds at varying concentrations in 12-well plates in volumes of 1 ml for different periods of time at 37°C. Subsequently, the cultures were centrifuged for 5 min at 2600 x g, the cells washed by re-suspending the pellets in 1 ml medium without inhibitors, centrifuged again and re-suspended in 1 ml fresh medium. The cell suspensions were then incubated under regular culture conditions for 3 days and parasite growth monitored daily by light microscopy.
The results for both strains are similar with no grow-back at concentrations of CTCB compounds greater than 2 to 4 µM with drug exposure longer than 4-6 hours.

[7] = system: T. b. brucei GVR35-Luc2; assay: T. b. brucei GVR35-Luc2 time-to-kill assay (luciferin); format: cell-based; details: for Luminescence (medium-subtracted), Average: average of replicates; for % Cell viability, individual replicates / % Inhibition, individual replicates / Luminescence (medium-subtracted), individual replicates: replicate wells; for Luminescence, Average / Luminescence, individual replicates: Time to kill assay for GVR35 cells
Method: Enzyme activity was measured using an aldolase/TIM linked assay at 25 °C. […] Experiments were carried out in duplicate. Data are presented as mean values ± standard deviation. […] Source data are provided as a Source Data File. b Kill time of CTCB-405 compared with existing HAT drugs in the clinic. […] Over 99% of trypanosomes were killed in under 30 min compared with much slower killing rates for the other drugs. The points on the graph for CTCB-405 were determined from two independent biological replicate experiments with each time point measured twice (using duplicate technical replicates). The ESD for each point on the graph is between 0.7 and 1.4%. For drugs in clinical use each point on the graph is the average of two technical replicates from one experiment (with a maximum difference of 7.8% for any of the points). Source data are provided as a Source Data File.
As predicted from the biology of the BSF that relies wholly on glycolysis for ATP production, inhibition of the pathway results in a very fast TTK. Two experimental methods were used to measure ATP levels as a real-time indicator of viability. For Tb427 parasites, a Cell Titre Glo kit was used and for the TbGVR35 bioluminescent strain, killing was assessed by adding luciferin which requires ATP to produce a luminescent signal (Supplementary Methods 4.3 and 4.4). […] The BSF of T. brucei cannot produce ATP by oxidative phosphorylation and is solely dependent on flux through the glycolytic pathway. The clear correlation between inhibitor dose and reduction in ATP production, as observed in the TTK assays strongly supports the proposed mode of action of the CTCB compounds is by blocking glycolysis. It is a long-established experimental observation that withdrawal of glucose nutrient leads to rapid loss of motility and cell death. It has recently been shown that the BSF of T. brucei can proliferate on high levels of glycerol; however, we have shown that addition of glycerol to the medium has little effect on parasite killing by the CTCB compounds (Supplementary Table 3).
The killing of T. b. brucei GVR35-Luc2 was assessed by adding D-luciferin to live cells resulting in the production of light in the presence of ATP and luciferase activity. Compounds of interest were serially diluted from 16 µM to 0.5 µM in Modified HMI-9 medium and added into sterile white, flat bottom 96-well plate (Greiner Inc.). 32,000 trypanosomes were added to each well. The plates were incubated at 37 °C and 5% CO2. At the end of each incubation, 200 µg/ml of D-luciferin was added to each well and incubated for 10 min. Luminescence was measured using a BMG plate reader and percentage cell viability versus incubation time was determined.

[8] = 0.5 h, mean, suramin, fexinidazole, SCYX-7158 11 µM, CTCB-405 4 µM
[9] = 1 h, mean, suramin, fexinidazole, SCYX-7158 11 µM, CTCB-405 4 µM
[10] = 2 h, mean, suramin, fexinidazole, SCYX-7158 11 µM, CTCB-405 4 µM
[11] = 4 h, mean, suramin, fexinidazole, SCYX-7158 11 µM, CTCB-405 4 µM
[12] = 6 h, mean, suramin, fexinidazole, SCYX-7158 11 µM, CTCB-405 4 µM
[13] = 8 h, mean, suramin, fexinidazole, SCYX-7158 11 µM, CTCB-405 4 µM
[14] = GVR35 TTK, 24 h incubation, average
[15] = GVR35 TTK, 24 h incubation, from average
[16] = GVR35 TTK, 24 h sheet, summary line marked "4"

CN(C)CCn1ccc2c(ccn2Cc2ccc(Cl)c(Br)c2)c1=O [CTCB-470, 1-[(3-Bromo-4-chlorophenyl)methyl]-5-[2-(dimethylamino)ethyl] pyrrolo[3,2-c]pyridin-4-one]
EC50 [1]: 0.14 µM | MDCK-MDR1 A-B [2]: 34.9 | MDCK-MDR1 B-A [2]: 28.3 | wash-out: grow-back after removal of drug [3]: no grow-back | Mouse hepatocytes Clint [4]: 3.6 µL min^−1 per 10^6 cells | EC50 [5]: 0.28 µM | wash-out: grow-back after removal of drug [6]: no grow-back

CN(C)CCn1ccc2c(ccn2Cc2ccc(Cl)c(Cl)c2)c1=O [CTCB-405, 1-[(3,4-Dichlorophenyl)methyl]-5-[2-(dimethylamino)ethyl] pyrrolo[3,2-c]pyridin-4-one]
EC50 [1]: 0.19 µM | MDCK-MDR1 A-B [2]: 17.6 | MDCK-MDR1 B-A [2]: 17.2 | wash-out: grow-back after removal of drug [3]: no grow-back | Mouse hepatocytes Clint [4]: 3.7 µL min^−1 per 10^6 cells | trypanosomes killed in under 30 min ([7]; 4 µM, GVR35 bioluminescent strain): Over 99% | % Cell viability, single replicates ([7]; 0.5 h): 0.291% and 2.73% | % Inhibition, single replicates ([7]; 0.5 h): 100% and 97% | % Cell viability ([7]; 0.5 h, average): 1.49% and 1.51% | % Inhibition [7, 8]: 99% | % Cell viability, single replicates ([7]; 1 h): -0.108% and -1% | % Inhibition, single replicates ([7]; 1 h): 100% and 101% | % Inhibition [7, 9]: 101% | % Cell viability, single replicates ([7]; 2 h): -0.773% and 0.055% | % Inhibition, single replicates ([7]; 2 h): 101% and 100% | % Cell viability ([7]; 2 h, average): -0.345% and -0.359% | % Inhibition [7, 10]: 100% | % Cell viability, single replicates ([7]; 4 h): -0.741% and -0.843% | % Inhibition, single replicates ([7]; 4 h): 101% | % Cell viability ([7]; 4 h, average): -0.791% and 0% and -0.792% | % Inhibition [7, 11]: 101% | % Cell viability, single replicates ([7]; 6 h): -0.633% and -0.494% | % Inhibition, single replicates ([7]; 6 h): 101% and 100% | % Cell viability ([7]; 6 h, average): -0.563% and -0.564% | % Inhibition [7, 12]: 101% | % Cell viability, single replicates ([7]; 8 h): -0.333% and -0.376% | % Inhibition, single replicates ([7]; 8 h): 100% | % Cell viability ([7]; 8 h, average): -0.354% | % Inhibition [7, 13]: 100% | % Cell viability, Average [7, 14]: -0.0941% | Luminescence (medium-subtracted), Average ([7]; GVR35 TTK, 24 h incubation): -1 | % Inhibition [7, 15]: 100% | % Cell viability, individual replicates ([7]; GVR35 TTK, 24 h incubation): -0.0906% and -0.0976% | % Inhibition, individual replicates ([7]; GVR35 TTK, 24 h incubation): 100% | Luminescence (medium-subtracted), individual replicates ([7]; GVR35 TTK, 24 h incubation): -8.5 and 6.5 | % Cell viability [7, 16]: -0.0937% | Luminescence, Average ([7]; 0.5 hour incubation): 184 | Luminescence, individual replicates ([7]; 0.5 hour incubation): 76 and 293 | Luminescence, Average ([7]; 1hour incubation): 41 | Luminescence, individual replicates ([7]; 1hour incubation): 96 and -14 | Luminescence, Average ([7]; 2hour incubation): 40 | Luminescence, individual replicates ([7]; 2hour incubation): -17 and 96 | Luminescence, Average ([7]; 4hour incubation): -33 | Luminescence, individual replicates ([7]; 4hour incubation): -26 and -40 | Luminescence, Average ([7]; 6hour incubation): -24 | Luminescence, individual replicates ([7]; 6hour incubation): -47 and -1 | Luminescence, Average ([7]; 8hour incubation): 13 | Luminescence, individual replicates ([7]; 8hour incubation): 20 and 6 | Luminescence, Average ([7]; 24hour incubation): -1 | Luminescence, individual replicates ([7]; 24hour incubation): -8.5 and 6.5 | EC50 [5]: 0.25 µM | wash-out: grow-back after removal of drug [6]: no grow-back

CNCCn1ccc2c(ccn2Cc2ccc(Cl)c(Cl)c2)c1=O [CTCB-435]
% Cell viability, single replicates ([7]; 0.5 h): 0.549% and -0.0671% | % Inhibition, single replicates ([7]; 0.5 h): 99% and 100% | % Cell viability ([7]; 0.5 h, average): 0.247% and 0.241% | % Inhibition [7, 8]: 100% | % Cell viability, single replicates ([7]; 1 h): -0.883% and -0.918% | % Inhibition, single replicates ([7]; 1 h): 101% | % Inhibition [7, 9]: 101% | % Cell viability, single replicates ([7]; 2 h): -0.287% and -0.261% | % Inhibition, single replicates ([7]; 2 h): 100% | % Cell viability ([7]; 2 h, average): -0.274% | % Inhibition [7, 10]: 100% | % Cell viability, single replicates ([7]; 4 h): -0.785% and -0.904% | % Inhibition, single replicates ([7]; 4 h): 101% | % Cell viability ([7]; 4 h, average): -0.843% and 0% and -0.844% | % Inhibition [7, 11]: 101% | % Cell viability, single replicates ([7]; 6 h): -0.726% and -0.643% | % Inhibition, single replicates ([7]; 6 h): 101% | % Cell viability ([7]; 6 h, average): -0.684% | % Inhibition [7, 12]: 101% | % Cell viability, single replicates ([7]; 8 h): -0.436% and -0.367% | % Inhibition, single replicates ([7]; 8 h): 100% | % Cell viability ([7]; 8 h, average): -0.401% | % Inhibition [7, 13]: 100% | % Cell viability, Average [7, 14]: -0.136% | Luminescence (medium-subtracted), Average ([7]; GVR35 TTK, 24 h incubation): -47.5 | % Inhibition [7, 15]: 100% | % Cell viability, individual replicates ([7]; GVR35 TTK, 24 h incubation): -0.139% and -0.134% | % Inhibition, individual replicates ([7]; GVR35 TTK, 24 h incubation): 100% | Luminescence (medium-subtracted), individual replicates ([7]; GVR35 TTK, 24 h incubation): -66.5 and -28.5 | % Cell viability [7, 16]: -0.137% | Luminescence, Average ([7]; 0.5 hour incubation): 71 | Luminescence, individual replicates ([7]; 0.5 hour incubation): 100 and 43 | Luminescence, Average ([7]; 1hour incubation): 2 | Luminescence, individual replicates ([7]; 1hour incubation): 3 and 1 | Luminescence, Average ([7]; 2hour incubation): 50 | Luminescence, individual replicates ([7]; 2hour incubation): 49 and 50 | Luminescence, Average ([7]; 4hour incubation): -42 | Luminescence, individual replicates ([7]; 4hour incubation): -34 and -51 | Luminescence, Average ([7]; 6hour incubation): -65 | Luminescence, individual replicates ([7]; 6hour incubation): -78 and -51 | Luminescence, Average ([7]; 8hour incubation): -1.5 | Luminescence, individual replicates ([7]; 8hour incubation): -12 and 9 | Luminescence, Average ([7]; 24hour incubation): -48 | Luminescence, individual replicates ([7]; 24hour incubation): -67 and -29
